Test: Concentration required for the neuroprotective effect determined by inhibition of GCP II

| SMILES | EC50 |
| --- | --- |
| O=C(O)CCC(CP(=O)(O)Cc1c(F)c(F)c(F)c(F)c1F)C(=O)O (racemic) | 0.0095 µM |
| O=C(O)CCC(CCCC(=O)NO)C(=O)O (stereo not drawn) [2-(3-Hydroxycarbamoyl-propyl)-pentanedioic acid] | 1.1 µM |
| O=C(O)CCC(CC(=O)NO)C(=O)O (stereo not drawn) [2-[(hydroxycarbamoyl)methyl]pentanedioic acid] | 0.22 µM |

— BindingDB's records for doi:10.1016/s0960-894x(03)00407-4 (Guilford Pharmaceuticals, 2003)
